From patent publication US9273040B2 (Merck Sharp & Dohme Corp., priority 2011, dated 2016) come the findings set out here.

What all share (assay type): cell-based
In assay [1] the target is T1, human Nav1.5 channels stably expressed in HEK 293 cells (Homo sapiens, UniProt Q14524).
T1 construct: expressed in transfected cells
The experiment in a line: IonWorks Quattro automated patch-clamp, sodium current, inactivated state block. The note with it: selectivity over Nav1.5. Here is the method:
(§1) Compounds were tested on human Nav1.7 and Nav1.5 channels stably expressed in HEK 293 cells. […] Cells were sealed on a planar substrate using the Population Patch Plate (PPC) technology. Electrical access was obtained using both nystatin and amphotericin. A double-pulse protocol was used for the determination of IC50 values for inactivated state block. Nav1.7 and Nav1.5 expressing cells were voltage clamped at −100 mV and −110 mV, respectively. A depolarizing prepulse to −10 mV (Nav1.7) or −30 mV (Nav1.5) for 1000 ms followed by a 10 ms repolarization to −100 mV (Nav1.7) or −110 mV (Nav1.5) was given to generate fractional channel inactivation of ˜50%, followed by a 10 ms test pulse to −10 mV (Nav1.7) or −30 mV (Nav1.5) to measure peak current in control conditions and after compound addition. The following recording solutions were used (mM). External: 150 NaCl, 2 CaCl2, 5 KCl, 1 Mg Cl2, 10 HEPES, 12 Dextrose; internal: 120 CsF, 30 CsCl, 10 EGTA, 5 HEPES, 5 NaF, 2 MgCl2.
(§2) For all electrophysiology experiments, offline analysis was used to correct for current rundown and to determine percent inhibition as a function of drug concentration. IC50 values were determined by fitting to the Hill equation.

In assay [2] the target is T2, human Nav1.7 channels stably expressed in HEK 293 cells (Homo sapiens, UniProt Q15858).
T2 construct: expressed in transfected cells
Described as above. The note with it: read-out: potency for the Nav 1.7 sodium ion channel (as measured by IonWorks). As to the method: as §1, §2

Assay [3] addresses T1, human Nav1.5 channels stably expressed in HEK 293 cells. As to the kind of experiment: PatchXpress 7000 automated patch-clamp, sodium current. Conditions: selectivity over Nav1.5. The procedure, abridged:
(§3)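 IC50 values came from Hill-equation fits of rundown-corrected inhibition. PatchXpress recordings at 22° C held cells 20 mV negative to V0.5 inact and applied 10 Hz trains of 30 ms steps to −20 mV (Nav1.7) or an 8000 ms prepulse 7 mV positive to V0.5 inact. […]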
A general note: In patch-clamp work, channel activity is measured electrically.

Assay [4] concerns the target T2, human Nav1.7 channels stably expressed in HEK 293 cells. Described as above. The note with it: 22° C., read-out: potency for the Nav 1.7 sodium ion channel (as measured by PatchXpress). The procedure, abridged:
as §3

Each structure is given as a SMILES string.

T1 sequence (Q14524 whole entry): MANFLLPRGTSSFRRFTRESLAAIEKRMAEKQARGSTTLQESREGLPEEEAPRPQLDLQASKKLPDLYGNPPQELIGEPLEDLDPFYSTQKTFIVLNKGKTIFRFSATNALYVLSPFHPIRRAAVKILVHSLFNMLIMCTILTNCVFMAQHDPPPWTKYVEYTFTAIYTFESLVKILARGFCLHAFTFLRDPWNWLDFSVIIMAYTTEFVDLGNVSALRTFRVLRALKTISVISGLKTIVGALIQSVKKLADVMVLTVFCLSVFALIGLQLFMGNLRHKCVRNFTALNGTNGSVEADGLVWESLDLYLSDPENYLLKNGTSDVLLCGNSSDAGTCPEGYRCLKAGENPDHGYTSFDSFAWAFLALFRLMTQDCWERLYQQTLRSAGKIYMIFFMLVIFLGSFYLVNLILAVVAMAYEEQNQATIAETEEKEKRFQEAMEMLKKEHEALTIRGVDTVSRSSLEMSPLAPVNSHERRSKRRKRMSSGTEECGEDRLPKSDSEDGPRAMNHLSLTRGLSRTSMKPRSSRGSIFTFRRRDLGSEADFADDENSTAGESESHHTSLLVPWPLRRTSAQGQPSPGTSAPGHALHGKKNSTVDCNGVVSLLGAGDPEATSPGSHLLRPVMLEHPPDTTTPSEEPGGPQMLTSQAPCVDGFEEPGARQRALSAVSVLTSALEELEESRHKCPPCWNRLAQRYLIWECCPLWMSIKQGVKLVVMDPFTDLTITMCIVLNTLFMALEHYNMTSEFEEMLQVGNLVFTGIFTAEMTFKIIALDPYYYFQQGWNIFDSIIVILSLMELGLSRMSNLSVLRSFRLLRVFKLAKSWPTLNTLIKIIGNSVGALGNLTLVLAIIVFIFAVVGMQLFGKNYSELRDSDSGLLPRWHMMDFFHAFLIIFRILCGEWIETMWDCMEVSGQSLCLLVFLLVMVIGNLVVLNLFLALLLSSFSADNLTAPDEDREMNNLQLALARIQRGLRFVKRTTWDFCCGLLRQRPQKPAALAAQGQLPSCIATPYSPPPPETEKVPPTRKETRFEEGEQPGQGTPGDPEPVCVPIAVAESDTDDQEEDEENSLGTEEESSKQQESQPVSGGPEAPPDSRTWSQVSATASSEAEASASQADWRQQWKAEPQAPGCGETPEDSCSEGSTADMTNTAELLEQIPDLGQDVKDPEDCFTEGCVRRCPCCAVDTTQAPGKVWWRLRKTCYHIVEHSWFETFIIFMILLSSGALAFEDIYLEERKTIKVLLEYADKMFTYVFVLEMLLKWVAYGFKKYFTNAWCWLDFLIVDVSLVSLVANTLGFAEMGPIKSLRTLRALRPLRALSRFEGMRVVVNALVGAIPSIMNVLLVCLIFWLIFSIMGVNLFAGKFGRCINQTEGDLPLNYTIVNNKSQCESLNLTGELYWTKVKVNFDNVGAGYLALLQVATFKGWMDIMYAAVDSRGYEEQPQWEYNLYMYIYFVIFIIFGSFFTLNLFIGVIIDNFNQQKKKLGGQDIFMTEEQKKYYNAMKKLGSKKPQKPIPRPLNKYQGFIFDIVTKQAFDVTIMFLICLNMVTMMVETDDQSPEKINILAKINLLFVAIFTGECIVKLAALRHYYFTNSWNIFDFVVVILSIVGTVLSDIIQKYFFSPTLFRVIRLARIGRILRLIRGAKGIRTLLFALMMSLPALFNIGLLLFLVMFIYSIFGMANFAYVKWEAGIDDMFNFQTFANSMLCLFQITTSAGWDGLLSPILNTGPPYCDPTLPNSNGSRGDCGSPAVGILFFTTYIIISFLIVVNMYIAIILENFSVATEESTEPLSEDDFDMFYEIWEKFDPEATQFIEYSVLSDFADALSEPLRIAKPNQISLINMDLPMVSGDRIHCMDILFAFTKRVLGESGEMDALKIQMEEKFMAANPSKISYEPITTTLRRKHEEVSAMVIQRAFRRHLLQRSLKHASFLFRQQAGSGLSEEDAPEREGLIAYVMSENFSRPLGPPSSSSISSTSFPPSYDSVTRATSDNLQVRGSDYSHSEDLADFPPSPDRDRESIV
T2 sequence (Q15858 whole entry): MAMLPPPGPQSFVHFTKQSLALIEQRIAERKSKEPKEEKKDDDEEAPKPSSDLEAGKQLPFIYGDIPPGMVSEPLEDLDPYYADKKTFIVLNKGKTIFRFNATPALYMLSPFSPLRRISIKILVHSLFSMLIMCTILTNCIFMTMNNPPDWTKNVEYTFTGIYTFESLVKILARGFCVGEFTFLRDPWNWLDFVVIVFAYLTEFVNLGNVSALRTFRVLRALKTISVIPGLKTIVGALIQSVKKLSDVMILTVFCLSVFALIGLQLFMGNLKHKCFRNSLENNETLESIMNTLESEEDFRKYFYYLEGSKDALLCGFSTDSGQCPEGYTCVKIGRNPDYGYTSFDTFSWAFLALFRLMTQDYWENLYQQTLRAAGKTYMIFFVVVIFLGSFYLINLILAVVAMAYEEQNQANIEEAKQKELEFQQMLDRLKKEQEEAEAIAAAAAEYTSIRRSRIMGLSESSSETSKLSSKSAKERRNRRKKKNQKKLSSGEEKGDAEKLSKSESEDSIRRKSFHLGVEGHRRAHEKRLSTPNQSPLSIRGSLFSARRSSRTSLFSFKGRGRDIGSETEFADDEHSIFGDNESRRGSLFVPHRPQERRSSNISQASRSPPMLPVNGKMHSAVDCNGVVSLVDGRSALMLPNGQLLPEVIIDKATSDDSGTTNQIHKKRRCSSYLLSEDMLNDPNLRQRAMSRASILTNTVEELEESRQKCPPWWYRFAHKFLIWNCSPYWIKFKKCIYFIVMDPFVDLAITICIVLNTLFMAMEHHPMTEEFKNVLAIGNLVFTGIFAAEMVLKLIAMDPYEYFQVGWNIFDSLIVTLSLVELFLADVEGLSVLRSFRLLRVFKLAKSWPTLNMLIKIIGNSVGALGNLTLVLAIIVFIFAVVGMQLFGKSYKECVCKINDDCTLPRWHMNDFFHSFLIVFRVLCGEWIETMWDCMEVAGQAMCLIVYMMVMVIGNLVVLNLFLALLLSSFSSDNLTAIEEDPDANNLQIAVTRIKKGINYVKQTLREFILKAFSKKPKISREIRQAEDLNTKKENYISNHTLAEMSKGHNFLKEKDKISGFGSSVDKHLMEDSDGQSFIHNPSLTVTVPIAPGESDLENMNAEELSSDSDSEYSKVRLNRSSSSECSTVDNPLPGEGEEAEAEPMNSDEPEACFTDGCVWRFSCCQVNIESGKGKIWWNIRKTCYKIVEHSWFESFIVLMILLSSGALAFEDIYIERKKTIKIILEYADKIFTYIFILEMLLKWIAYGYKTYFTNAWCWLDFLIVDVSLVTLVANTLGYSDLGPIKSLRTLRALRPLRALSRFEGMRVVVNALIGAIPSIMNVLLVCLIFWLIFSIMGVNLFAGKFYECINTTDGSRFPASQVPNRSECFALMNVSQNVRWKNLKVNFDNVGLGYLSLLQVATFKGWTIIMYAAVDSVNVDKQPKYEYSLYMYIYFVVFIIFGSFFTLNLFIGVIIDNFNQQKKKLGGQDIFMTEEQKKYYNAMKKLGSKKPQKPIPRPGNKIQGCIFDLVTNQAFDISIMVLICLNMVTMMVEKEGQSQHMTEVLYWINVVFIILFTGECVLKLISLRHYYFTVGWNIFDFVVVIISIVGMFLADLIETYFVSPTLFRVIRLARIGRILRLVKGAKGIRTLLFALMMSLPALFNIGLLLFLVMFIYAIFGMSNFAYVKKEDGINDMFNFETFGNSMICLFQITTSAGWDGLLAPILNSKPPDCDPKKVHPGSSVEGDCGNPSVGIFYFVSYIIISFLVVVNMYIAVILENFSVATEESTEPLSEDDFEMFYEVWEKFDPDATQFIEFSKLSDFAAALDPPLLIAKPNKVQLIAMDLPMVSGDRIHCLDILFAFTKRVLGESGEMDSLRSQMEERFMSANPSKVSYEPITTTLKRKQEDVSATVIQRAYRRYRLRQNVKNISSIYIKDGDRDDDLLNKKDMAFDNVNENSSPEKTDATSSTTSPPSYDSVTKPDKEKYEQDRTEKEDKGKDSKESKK

Turning to `NCc1ccc(Cl)cc1Cn1c(=O)oc2cc(S(=O)(=O)Nc3ncns3)ccc21` [Compound 1-15, 3-[2-(aminomethyl)-5-chlorobenzyl]-2-oxo-N-1,2,4-thiadiazol-5-yl-2,3-dihydro-1,3-benzoxazole-6-sulfonamide], the “ratio of Nav 1.5:Nav 1.7 potency, determined by IonWorks measurement” value (“ratio … by IonWorks measurement” for short) in assay [1] was over 55. In addition, in assay [2], the IC50 came out at 605 nM.
Regarding `O=c1oc2cc(S(=O)(=O)Nc3ncns3)ccc2n1Cc1cccc2c1CCNC2` [Compound 1-16, 2-oxo-3-(1,2,3,4-tetrahydroisoquinolin-5-ylmethyl)-N-1,2,4-thiadiazol-5-yl-2,3-dihydro-1,3-benzoxazole-6-sulfonamide], the IC50 came out at 1690 nM in assay [2] and 3210 nM in assay [4]. In assay [3], the “ratio of Nav 1.5:Nav 1.7 potency, determined by PatchXpress measurement” value (from here on “ratio … by PatchXpress measurement”) is recorded as over 9.
As to `O=c1oc2cc(S(=O)(=O)Nc3ncns3)ccc2n1Cc1cccc2ccncc12` [Compound 1-17, 3-(isoquinolin-8-ylmethyl)-2-oxo-N-1,2,4-thiadiazol-5-yl-2,3-dihydro-1,3-benzoxazole-6-sulfonamide], in assay [1], the “ratio … by IonWorks measurement” value is reported as 65. In addition, the IC50 in assay [2] came out at 216 nM.
On to `O=c1oc2cc(S(=O)(=O)Nc3ncns3)ccc2n1Cc1ccccc1C1=CCCNC1` [Compound 3-6, 2-oxo-3-[2-(1,2,5,6-tetrahydropyridin-3-yl)benzyl]-N-1,2,4-thiadiazol-5-yl-2,3-dihydro-1,3-benzoxazole-6-sulfonamide], for which the IC50 is 287 nM in assay [2] and 329 nM in assay [4]. The “ratio … by PatchXpress measurement” value in assay [3] is on record as over 91.
Turning to `O=c1oc2cc(S(=O)(=O)Nc3ncns3)ccc2n1Cc1ccccc1-c1ccccc1N1CCNCC1` [Compound 3-9, 2-oxo-3-[(2′-piperazin-1-ylbiphenyl-2-yl)methyl]-N-1,2,4-thiadiazol-5-yl-2,3-dihydro-1,3-benzoxazole-6-sulfonamide], the “ratio … by IonWorks measurement” value in assay [1] is over 59. Further, the IC50 in assay [2] is 563 nM.
In the case of `O=c1oc2cc(S(=O)(=O)Nc3ncns3)ccc2n1Cc1ccccc1-c1ccnc(CN2CCCCC2)c1` [Compound 3-10, 2-oxo-3-{2-[2-(piperidin-1-ylmethyl)pyridin-4-yl]benzyl}-N-1,2,4-thiadiazol-5-yl-2,3-dihydro-1,3-benzoxazole-6-sulfonamide], the IC50 in assay [2] stood at 1740 nM.
On to `O=c1oc2cc(S(=O)(=O)Nc3ncns3)ccc2n1Cc1cccc(-c2ccc3c(c2)CNCC3)c1` [Compound 3-12, 2-oxo-3-[3-(1,2,3,4-tetrahydroisoquinolin-7-yl)benzyl]-N-1,2,4-thiadiazol-5-yl-2,3-dihydro-1,3-benzoxazole-6-sulfonamide], for which the IC50 is 287 nM in assay [2] and 545 nM in assay [4]. Besides, in assay [3], the “ratio … by PatchXpress measurement” value is on record as 55.
For `O=c1oc2cc(S(=O)(=O)Nc3ncns3)ccc2n1Cc1cccc(-c2cccc3c2CNCC3)c1` [Compound 3-13, 2-oxo-3-[3-(1,2,3,4-tetrahydroisoquinolin-8-yl)benzyl]-N-1,2,4-thiadiazol-5-yl-2,3-dihydro-1,3-benzoxazole-6-sulfonamide], the “ratio … by IonWorks measurement” value in assay [1] is reported as over 83. Also, the IC50 in assay [2] was determined as 395 nM.
The corresponding values for `O=c1oc2cc(S(=O)(=O)Nc3ncns3)ccc2n1Cc1cccc(-c2cccc3c2CCNC3)c1` [Compound 3-14, 2-oxo-3-[3-(1,2,3,4-tetrahydroisoquinolin-5-yl)benzyl]-N-1,2,4-thiadiazol-5-yl-2,3-dihydro-1,3-benzoxazole-6-sulfonamide] are 35 and 430 nM.
As for `O=c1oc2cc(S(=O)(=O)Nc3ncns3)ccc2n1Cc1cccc(C2=CCCNC2)c1` [Compound 3-15, 2-oxo-3-[3-(1,2,5,6-tetrahydropyridin-3-yl)benzyl]-N-1,2,4-thiadiazol-5-yl-2,3-dihydro-1,3-benzoxazole-6-sulfonamide], in assay [2], the IC50 turned out to be 646 nM.
On to `O=c1oc2cc(S(=O)(=O)Nc3ncns3)ccc2n1Cc1cccc(C2=CCNCC2)c1` [Compound 3-16, 2-oxo-3-[3-(1,2,3,6-tetrahydropyridin-4-yl)benzyl]-N-1,2,4-thiadiazol-5-yl-2,3-dihydro-1,3-benzoxazole-6-sulfonamide], for which the “ratio … by IonWorks measurement” value in assay [1] is reported as over 43. Also, the IC50 in assay [2] is 759 nM.
For the compound `O=c1oc2cc(S(=O)(=O)Nc3ncns3)ccc2n1Cc1cccc(C2=CCNCCC2)c1` [Compound 3-17, 2-oxo-3-[3-(2,5,6,7-tetrahydro-1H-azepin-4-yl)benzyl]-N-1,2,4-thiadiazol-5-yl-2,3-dihydro-1,3-benzoxazole-6-sulfonamide], in assay [1], the “ratio … by IonWorks measurement” value is over 40. Also, the IC50 in assay [2] was 827 nM.
On to `O=c1oc2cc(S(=O)(=O)Nc3ncns3)ccc2n1Cc1cccc(C2=CC3CCC(C2)N3)c1` (stereo not drawn) [Compound 3-18, 3-[3-(8-azabicyclo[3.2.1]oct-2-en-3-yl)benzyl]-2-oxo-N-1,2,4-thiadiazol-5-yl-2,3-dihydro-1,3-benzoxazole-6-sulfonamide], for which the IC50 in assay [2] turned out to be 1330 nM.
In the case of `C[C@@H](c1ccccc1)n1c(=O)oc2cc(S(=O)(=O)Nc3ncns3)ccc21` [Compound 4-8, 2-oxo-3-[(1S)-1-phenylethyl]-N-1,2,4-thiadiazol-5-yl-2,3-dihydro-1,3-benzoxazole-6-sulfonamide], in assay [1], the “ratio … by IonWorks measurement” value is over 22. The IC50 in assay [2] is 1480 nM.
In the case of `O=c1oc2cc(S(=O)(=O)Nc3ncns3)ccc2n1C(c1ccccc1)c1ncco1` (stereo not drawn) [Compound 4-10, 3-[1,3-oxazol-2-yl(phenyl)methyl]-2-oxo-N-1,2,4-thiadiazol-5-yl-2,3-dihydro-1,3-benzoxazole-6-sulfonamide], the IC50 in assay [2] is 1330 nM; in assay [4], 643 nM. Besides, in assay [3], the “ratio … by PatchXpress measurement” value is given as over 47.
As to `O=c1oc2cc(S(=O)(=O)Nc3ncns3)ccc2n1C(c1ccccc1)C1CC1` (stereo not drawn) [Compound 4-12, 3-[cyclopropyl(phenyl)methyl]-2-oxo-N-1,2,4-thiadiazol-5-yl-2,3-dihydro-1,3-benzoxazole-6-sulfonamide], the “ratio … by IonWorks measurement” value in assay [1] was over 32. For the same compound, the IC50 in assay [2] came out at 1040 nM.
On to `C=CCC(c1ccccc1)n1c(=O)oc2cc(S(=O)(=O)Nc3ncns3)ccc21` (stereo not drawn) [Compound 4-13, 2-oxo-3-(1-phenylbut-3-en-1-yl)-N-1,2,4-thiadiazol-5-yl-2,3-dihydro-1,3-benzoxazole-6-sulfonamide], for which the IC50 is 272 nM in assay [2] and 88 nM in assay [4]. The “ratio … by PatchXpress measurement” value in assay [3] was determined as 177.
For the compound `CCCN1CCc2cccc(Cn3c(=O)oc4cc(S(=O)(=O)Nc5ncns5)ccc43)c2C1` [Compound 6-3, 2-oxo-3-[(2-propyl-1,2,3,4-tetrahydroisoquinolin-8-yl)methyl]-N-1,2,4-thiadiazol-5-yl-2,3-dihydro-1,3-benzoxazole-6-sulfonamide], the IC50 in assay [2] amounted to 642 nM.
With `CC(c1ccccn1)n1c(=O)oc2cc(S(=O)(=O)Nc3ncns3)c(F)cc21` (stereo not drawn) [Compound 13-6, 5-fluoro-2-oxo-3-(1-pyridin-2-ylethyl)-N-1,2,4-thiadiazol-5-yl-2,3-dihydro-1,3-benzoxazole-6-sulfonamide], in assay [1], the “ratio … by IonWorks measurement” value is given as over 511. The IC50 in assay [2] was 65 nM.
